Earlier results in patent US11413253B2, “Nanoparticle delivery systems” (Celator Pharmaceuticals, Inc., priority 2015, dated 2022).

Conditions: shown in the art

plasma clearance of free drug	Compound
cleared quite rapidly	CCNC(=O)c1noc(-c2cc(C(C)C)c(O)cc2O)c1-c1ccc(CN2CCOCC2)cc1 [free AUY922, AUY922]
cleared quite rapidly	CC(=O)O[C@@]12CO[C@@H]1C[C@H](O)[C@@]1(C)C(=O)[C@H](O)C3=C(C)[C@@H](OC(=O)[C@H](O)[C@@H](NC(=O)OC(C)(C)C)c4ccccc4)C[C@@](O)([C@@H](OC(=O)c4ccccc4)[C@H]21)C3(C)C [free docetaxel, docetaxel]
